Data reported in ChEMBL document CHEMBL1275534, “Is 60 days of ciprofloxacin administration necessary for postexposure prophylaxis for Bacillus anthracis?” (Antimicrob Agents Chemother, 2008).
Values after ≈ are worked out from the molar mass of the structure shown.

Legend:
Bacillus anthracis [1] = experiment: Effect on growth of pX01 and pX02 deficient Bacillus anthracis delta-Sterne infected in hollow-fiber pharmacodynamic model assessed as maximal vegetative plus spore phase population size at 500 mg every 12 hrs; format: functional
Bacillus anthracis [2] = experiment: Antibacterial activity against pX01 and pX02 deficient Bacillus anthracis delta-Sterne after 24 hrs; format: functional

For O=C(O)c1cn(C2CC2)c2cc(N3CCNCC3)c(F)cc2c1=O [CIPROFLOXACIN], the log10CFU/ml (Bacillus anthracis [1]) was 554300000 and the MBC (Bacillus anthracis [2]) was 1 µg/mL (≈ 3.02 µM).
